In US8242152B2, “Use of 4-[(4-thiazolyl)phenoxy]alkoxy-benzamidine derivatives for the prophylaxis and treatment of osteoporosis” (Dong Wha Pharmaceutical Co., Ltd., priority 2001, dated 2012):

Key:
[1] = system: bone resorption of osteoclast; assay: Measurement of bone resorption, pit formation assay on ivory fragment (Example 3); type: cell-based, mice; conditions: 24 hrs; for inhibition at 0.016 µM / inhibition at 0.08 µM / inhibition at 0.4 µM / inhibition at 2 µM / inhibition at 10 µM / IC50: Mus musculus, Osteoclast; for inhibition at 0.016 µM / inhibition at 0.08 µM / inhibition at 0.4 µM / inhibition at 2 µM / inhibition at 10 µM: read-out: Inhibitory action (%)
Protocol: The mature osteoclast (OCL) is mainly involved in removing mineral by bone resorption. This experiment is designed to measure the inhibitory effects of each test substance on the bone resorption of osteoclast using ivory fragment (Eijiro Jimi et al. Endocrinology 137, p 2187-2190, 1996).
The co-culture system for both bone marrow cells and osteoblast was performed using a cultivation dish containing collagen gel (cell matrix Type I-A). Collagen, 5-fold concentrated α-MEM medium and 0.05M NaOH buffer solution (2.2% NaHCO3, pH7.4) were mixed at the ratio of 7:2:1 at a low temperature, and then storage at a low temperature. Then, 4 mL of the mixed solution was added to a 100 mm culture dish, applied evenly and left at 37° C. for 5 minutes.
Using α-MEM medium, the mixture of both bone marrow cells (about 1×10^7 cells/plate) and osteoblast (about 5×10^5 cells/plate), so separated from Example 1, were plated on a 100 mm dish containing collagen gel. The co-culture was performed in the presence of differentiation factors such as vitamin D (10^−9M) and dexamethasone (10^−6M). As described above, a great number of mature multinucleated osteoclasts with the ability of bone resorption were obtained via a 7-day co-culture. The medium was removed from the cells and with the addition of 0.2% collagenase solution, the attachment cells were separated by incubation for 20 minutes. The cells were collected via centrifuge. The harvested crude osteoclasts were again diluted in α-MEM medium to make the cells of 5,000 cells/100 ul.
Hematoxylin staining solution was prepared in a manner such that hematoxylin (1 g) was dissolved in 500 ml of distilled water and was added to 500 ml of distilled water and […] (0.2 g). The reaction mixture was stirred for 15 mins. Ammonium alum (50 g) and 7.5 ml of acetic acid were further added to the reaction mixture and filtered off.
After the ivory fragments, cut to a thickness of 1 mm, were sterilized, each fragment was placed into a 96 well plate, and 100 ul α-MEM medium (10% FBS) was added. To measure its inhibitory effect against the pit formation of osteoclast, each test substance was added in a maximum amount of 3 ul per concentration.
With the addition of test substances, 100 ul of osteoclast solution was further added, mixed vigorously and cultured using a 5% CO2 incubator at 37° C. for 24 hrs. To observe the pits formed on the ivory fragments, the portion of grown osteoclast was directed upward and placed on a paper towel after removing from the 96 well plate. With the removal of cells on the ivory, 10 ul of hematoxylin solution was dropped on the ivory to perform the staining for about 5 minutes. The surface of the ivory fragments was rubbed with a soft cotton pole to completely remove the staining solution.

LTB4 receptor = LTB4 receptor (Homo sapiens, UniProt Q15722); assay: LTB4 receptor binding assay on human neutrophils ([3H]-LTB4); design: endogenous in cells; host or cells: human neutrophils (PMN) purified from fresh blood; conditions: 100 nM; versus DW1350
Protocol: Neutrophils (PMN) were purified from freshly drawn human blood by standard techniques or dextran T-500 sedimentation and centrifugation on Ficoll/Paquc (pharmacia) followed by hypotonic lysis of crythrocyte. The purified PMN were resuspended to a final concentration of 3×10^7 cells/ml in HESS (Hank's balanced salt solution, Gibco).
The assay was performed following the method described elsewhere (Brown. A. R.; Grccnham, N. C.; Burroughes, J. H.: Bradely, D. C. C.; Friend. R. H.; Burn, P. L.; Kraft. A.: Holmes, A. B.; Chem. Phys, Lett. 1992, 200, 1246). LTB4 receptor binding assay was performed in 12×75 mm polypropylene tubes containing 0.5 nM of [^3H]-LTB4 (200 Ci/mmol), competitive compound, and cells suspended in HBSS (3×10^6 cells) (final volume: 200 ul). The tubes were incubated on ice for 45 minutes. Free and PMN bound [^3H]-LTB4 were separated by filtration through Whatman GF/C filters. The filters were then washed three times with 5 ml of ice cold Tris buffer (pH 7.4). […] The radioactivity was measured by liquid scintillation spectrometry. The specific binding was determined as the count difference total binding and binding in the presence of 1000-fold excess of unlabeled LTB4 (Scontrol). The LTB4 binding activity was calculated from the percent inhibition of specific [^3H]-LTB4 binding at various concentrations (Ssample). […]

Sequence of LTB4 receptor (Q15722 whole entry): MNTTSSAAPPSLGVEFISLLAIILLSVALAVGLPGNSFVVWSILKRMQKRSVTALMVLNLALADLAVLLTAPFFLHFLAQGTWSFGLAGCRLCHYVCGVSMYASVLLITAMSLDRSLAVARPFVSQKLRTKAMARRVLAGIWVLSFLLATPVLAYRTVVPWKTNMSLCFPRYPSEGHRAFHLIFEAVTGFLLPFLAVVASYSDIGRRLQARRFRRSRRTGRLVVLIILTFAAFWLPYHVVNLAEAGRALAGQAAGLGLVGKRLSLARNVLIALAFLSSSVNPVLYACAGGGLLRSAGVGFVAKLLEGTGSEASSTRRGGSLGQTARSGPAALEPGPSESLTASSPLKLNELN

Row | Compound | times the inhibition of LTB4 receptor binding of DW1350 (LTB4 receptor) | inhibition at 0.016 µM ([1]; 0.016 μM) [%] | inhibition at 0.08 µM ([1]; 0.08 μM) [%] | inhibition at 0.4 µM ([1]; 0.4 μM) [%] | inhibition at 2 µM ([1]; 2 μM) [%] | inhibition at 10 µM ([1]; 10 μM) [%] | IC50 [1] [µM] | also measured
1 | 4-[5-[4-(aminoiminomethyl)phenoxy]pentoxy]-3-methoxy-N,N-bis(1-methylethyl)benzamide maleic acid [CGS-25019C] | – | – | – | – | – | – | – | Inhibitory action (%) ([1]; 0.016 μM): 0%; Inhibitory action (%) ([1]; 0.08 μM): 0%; Inhibitory action (%) ([1]; 0.4 μM): 2%; Inhibitory action (%) ([1]; 2 μM): 9.2%; Inhibitory action (%) ([1]; 10 μM): 17.3%
2 | Cc1nc(-c2ccc(OCCCCOc3ccc(C(=N)N)cc3)cc2)c(C(C)C)s1 [DW1351, 4-{4-[4-(5-isopropyl-2-methyl-1,3-thiazol-4-yl)phenoxy]butoxy}-benzamidine] | more than eight times | – | – | – | – | – | – | –
3 | Cc1nc(-c2ccc(OCCCCCOc3ccc(C(=N)NO)cc3)cc2)c(C(C)C)s1 [DW1350, N-hydroxy-4-{5-[4-(5-isopropyl-2-methyl-1,3-thiazol-4-yl)phenoxy]pentoxy}-benzamidine] | – | 32.2 | 53.9 | 65.2 | 84.3 | 91.3 | 0.075 | –
4 | Cc1nc(-c2ccc(OCCCCOc3ccc(C(=N)NO)cc3)cc2)c(C(C)C)s1 [DW1349, N— hydroxy-4-{4-[4-(5-isopropyl-2-methyl-1,3-thiazol-4-yl)phenoxy]butoxy}-benzamidine] | more than three times | – | – | – | – | – | – | –
5 | COc1cc(C(=O)N(C(C)C)C(C)C)ccc1OCCCCOc1ccc2c(N)noc2c1 [HS1141, N,N-diisopropyl-4-[4-(3-aminobenzo[d]isooxazole-6-yloxy)butoxy]-3-methoxybenzamide] | – | 9 | 33 | 50.4 | 75.3 | 88.7 | 0.421 | –
6 | Cc1nc(-c2ccc(OCCCCCOc3ccc(C(=N)N)cc3)cc2)c(C(C)C)s1 [DW1352, 4-{5-[4-(5-isopropyl-2-methyl-1,3-thiazol-4-yl)phenoxy]pentoxy}-benzamidine] | – | 25 | 48.7 | 61.3 | 81.7 | 90 | 0.131 | –
